Data taken from patent US20230043863A1, “HETEROAROMATIC DERIVATIVES FOR USE AS REGULATOR, PREPARATION METHOD THEREFOR AND USE THEREOF” (JIANGSU HANSOH PHARMACEUTICAL GROUP CO., LTD., priority 2018, published 2023).
Values belong to the compound of their own block, whether it stands above or below them.

Tests used:
TYK2 = TYK2 (Homo sapiens, UniProt P29597); assay: JAK kinase activity inhibition, TR-FRET (TYK2); format: biochemical; conditions: TR-FRET kinase assay
Description: (§1) Experimental objective: The objective of this test is to test the inhibitory effect of the compound on JAK kinase activity.
(§2) Experimental method: the fluorescence resonance energy transfer (TR-FRET) method was used to test the inhibitory effect of the compound on JAK kinase activity, and the half inhibitory concentration IC50 of the compound on JAK kinase activity was obtained.
(§3) Kinase reaction was carried out in a white 384-well plate (PerkinElmer). 1-5 μL of different concentrations of the compound diluted with DMSO and ddH2O was added into each well, and 1-5 μL of the corresponding solvent was added to the positive control wells, followed by addition of 0.1-20 nM JAK kinase solution diluted with 1-5 μL of kinase buffer (HEPES 50-250 mM, MgCl2 5-20 mM, etc.) was added to each well. 1-5 μL of kinase buffer was added to the negative control well. 1-5 μL of substrate mixture containing peptide substrate and ATP was added. The plate was incubated at room temperature for 0.5-5 hours. […], EDTA and detection solution containing labeled antibody was added, and then the plate was incubated at room temperature for another 1-24 hours. The fluorescence signal value at about 620 nm and 665 nm of each well was measured by BioTek Synergy H1 plate reader, and the inhibition rate was calculated by the fluorescence signal value. According to the inhibition rate of different concentrations, the IC50 of the compound was obtained by curve fitting.
(§4) The percentage inhibition data of the wells treated with the compound was calculated with the positive control wells (DMSO control wells) and negative control wells (no kinase added) on the plate {% inhibition rate=100-[(test compound value-negative control value)]/(Positive control value-negative control value)×100}. IC50 value was calculated by using GraphPad prism to fit the data of different concentrations and corresponding percentage inhibition rates to a 4-parameter non-linear logic formula.

JAK1 = JAK1 (Homo sapiens, UniProt P23458); assay: JAK kinase activity inhibition, TR-FRET (JAK1); format: biochemical; conditions: TR-FRET kinase assay
Description: as §1, §2, §3, §4

Sequence of TYK2 (P29597 whole entry): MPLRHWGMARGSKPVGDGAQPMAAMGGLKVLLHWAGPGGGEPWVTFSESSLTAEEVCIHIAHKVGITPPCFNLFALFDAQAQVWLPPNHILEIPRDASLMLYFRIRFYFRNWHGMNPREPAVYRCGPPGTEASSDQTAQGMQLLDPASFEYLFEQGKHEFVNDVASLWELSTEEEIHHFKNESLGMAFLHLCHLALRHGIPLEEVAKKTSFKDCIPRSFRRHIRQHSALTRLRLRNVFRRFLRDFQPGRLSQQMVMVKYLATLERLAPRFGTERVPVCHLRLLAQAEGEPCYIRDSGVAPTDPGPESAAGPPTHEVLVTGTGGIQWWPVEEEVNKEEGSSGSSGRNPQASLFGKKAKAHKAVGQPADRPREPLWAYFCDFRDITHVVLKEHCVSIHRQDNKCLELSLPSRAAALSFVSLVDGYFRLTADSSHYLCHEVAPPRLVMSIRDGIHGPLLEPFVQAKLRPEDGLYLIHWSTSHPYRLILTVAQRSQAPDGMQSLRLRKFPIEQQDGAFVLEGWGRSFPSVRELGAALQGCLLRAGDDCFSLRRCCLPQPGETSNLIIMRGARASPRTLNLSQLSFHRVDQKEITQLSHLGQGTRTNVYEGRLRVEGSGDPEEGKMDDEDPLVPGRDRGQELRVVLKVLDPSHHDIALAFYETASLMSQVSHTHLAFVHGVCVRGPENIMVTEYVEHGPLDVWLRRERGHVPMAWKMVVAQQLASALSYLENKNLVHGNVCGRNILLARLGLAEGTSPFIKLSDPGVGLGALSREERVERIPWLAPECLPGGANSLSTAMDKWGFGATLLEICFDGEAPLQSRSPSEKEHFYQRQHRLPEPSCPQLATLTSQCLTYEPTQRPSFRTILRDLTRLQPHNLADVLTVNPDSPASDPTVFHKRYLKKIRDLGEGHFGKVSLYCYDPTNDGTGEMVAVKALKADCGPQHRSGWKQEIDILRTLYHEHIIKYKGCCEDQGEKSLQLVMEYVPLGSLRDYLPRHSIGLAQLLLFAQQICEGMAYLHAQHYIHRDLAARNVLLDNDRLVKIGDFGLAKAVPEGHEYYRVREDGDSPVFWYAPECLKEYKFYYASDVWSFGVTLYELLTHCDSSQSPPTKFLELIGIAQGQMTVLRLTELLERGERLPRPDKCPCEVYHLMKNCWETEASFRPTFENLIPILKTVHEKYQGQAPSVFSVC
Sequence of JAK1 (P23458 whole entry): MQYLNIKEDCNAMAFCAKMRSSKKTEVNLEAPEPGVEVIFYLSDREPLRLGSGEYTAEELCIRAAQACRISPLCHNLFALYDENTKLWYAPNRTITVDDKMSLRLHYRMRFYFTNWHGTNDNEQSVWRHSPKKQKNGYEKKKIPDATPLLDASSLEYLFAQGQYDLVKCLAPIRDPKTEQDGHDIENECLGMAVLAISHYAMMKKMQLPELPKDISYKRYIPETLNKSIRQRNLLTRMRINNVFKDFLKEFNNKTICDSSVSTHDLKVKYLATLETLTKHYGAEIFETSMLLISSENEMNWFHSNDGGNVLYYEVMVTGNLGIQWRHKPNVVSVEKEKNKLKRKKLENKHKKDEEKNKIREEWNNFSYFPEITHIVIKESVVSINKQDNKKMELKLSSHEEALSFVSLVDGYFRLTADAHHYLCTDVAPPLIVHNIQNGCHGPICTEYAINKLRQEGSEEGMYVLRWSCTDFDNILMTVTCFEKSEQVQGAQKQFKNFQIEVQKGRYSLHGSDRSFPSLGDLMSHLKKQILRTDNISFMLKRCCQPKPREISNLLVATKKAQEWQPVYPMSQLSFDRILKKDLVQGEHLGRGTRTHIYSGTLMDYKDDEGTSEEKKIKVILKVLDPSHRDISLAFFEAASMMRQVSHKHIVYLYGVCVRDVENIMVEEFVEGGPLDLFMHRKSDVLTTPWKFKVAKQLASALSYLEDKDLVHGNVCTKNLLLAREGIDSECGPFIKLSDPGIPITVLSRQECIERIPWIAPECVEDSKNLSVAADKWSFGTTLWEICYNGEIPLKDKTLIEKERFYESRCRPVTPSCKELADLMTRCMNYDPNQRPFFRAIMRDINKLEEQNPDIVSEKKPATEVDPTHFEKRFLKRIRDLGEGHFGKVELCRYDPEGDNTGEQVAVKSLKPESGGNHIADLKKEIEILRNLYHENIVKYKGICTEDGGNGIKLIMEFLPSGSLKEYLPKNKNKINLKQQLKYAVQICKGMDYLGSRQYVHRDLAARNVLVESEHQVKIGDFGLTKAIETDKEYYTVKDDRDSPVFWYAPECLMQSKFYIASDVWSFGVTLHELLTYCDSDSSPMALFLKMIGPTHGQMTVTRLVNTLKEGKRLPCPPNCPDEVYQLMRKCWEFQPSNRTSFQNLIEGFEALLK

SMILES: Cc1cc(Nc2nc(N[C@@H]3C[C@H]4CC[C@@H](C3)N4CCC#N)nc3cc(-c4cnn(C5CC5)c4)ccc23)n[nH]1 [Embodiment 185, 3-((3-exo)-3-((7-(1-cyclopropyl-1H-pyrazol-4-yl)-4-((5-methyl-1H-pyrazol-3-yl)amino)quinazolin-2-yl)amino)-8-azabicyclo[3.2.1]oct-8-yl)propionitrile]
IC50 (TYK2): 0.6 nM
IC50 (JAK1): 0.29 nM

SMILES: Cc1cc(Nc2nc(N[C@@H]3C[C@H]4CC[C@@H](C3)N4S(=O)(=O)N3CC(C#N)C3)nc3cc(C4CC4)ccc23)n[nH]1 [Embodiment 216, 1-(((3-exo)-3-((7-cyclopropyl-4-((5-methyl-1H-pyrazol-3-yl)amino)quinazolin-2-yl)amino)-8-azabicyclo[3.2.1]oct-8-yl)sulfonyl)azetindin-3-formonitrile]
IC50 (TYK2): 0.48 nM
IC50 (JAK1): 0.04 nM

SMILES: Cc1cnc(Nc2nc(N[C@@H]3C[C@H]4CC[C@@H](C3)N4S(=O)(=O)N3CC(C#N)C3)nc3ccccc23)s1 [Embodiment 221, 1-(((3-exo)-3-((4-((5-methylthioazole-2-yl)amino)quinazolin-2-yl)amino)-8-azabicyclo[3.2.1]oct-8-yl)sulfonyl)azetindin-3-formonitrile]
IC50 (TYK2): 1.26 nM
IC50 (JAK1): 0.79 nM

SMILES: Cc1cc(Nc2nc(N[C@@H]3C[C@H]4CC[C@@H](C3)N4C(=O)CN(C)C)nc3ccccc23)n[nH]1 [Embodiment 225, 2-(dimethylamine)-1-((3-exo)-3-((4-((5-methyl-1H-pyrazol-3-yl)amino)quinazolin-2-yl)amino)-8-azabicyclo[3.2.1]oct-8-yl)ethane-1-one]
IC50 (TYK2): 0.94 nM
IC50 (JAK1): 9.16 nM

SMILES: Cc1cc(Nc2nc(N[C@@H]3C[C@H]4CC[C@@H](C3)N4C(=O)c3ccccn3)nc3ccccc23)n[nH]1 [Embodiment 226, ((3-exo)-3-((4-((5-methyl-1H-pyrazol-3-yl)amino)quinazolin-2-yl)amino)-8-azabicyclo[3.2.1]oct-8-yl)(pyridin-2-yl)methanone]
IC50 (TYK2): 0.3 nM
IC50 (JAK1): 13.1 nM

SMILES: Cc1cc(Nc2nc(N[C@@H]3C[C@H]4CC[C@@H](C3)N4C(=O)c3cccnc3)nc3ccccc23)n[nH]1 [Embodiment 227, ((3-exo)-3-((4-((5-methyl-1H-pyrazol-3-yl)amino)quinazolin-2-yl)amino)-8-azabicyclo[3.2.1]oct-8-yl)(pyridin-3-yl)methanone]
IC50 (TYK2): 4.77 nM
IC50 (JAK1): 5.17 nM

SMILES: Cc1cc(Nc2nc(N[C@@H]3C[C@H]4CC[C@@H](C3)N4C(=O)C(F)F)nc3ccccc23)n[nH]1 [Embodiment 231, 2,2-difluoro-1-((3-exo)-3-((4-((5-methyl-1H-pyrazol-3-yl)amino)quinazolin-2-yl)amino)-8-azabicyclo[3.2.1]oct-8-yl)ethane-1-one]
IC50 (TYK2): 3.78 nM
IC50 (JAK1): 11.3 nM

SMILES: Cc1cc(Nc2nc(N[C@@H]3C[C@H]4CC[C@@H](C3)N4S(=O)(=O)c3cccnc3)nc3ccccc23)n[nH]1 [Embodiment 232]
IC50 (TYK2): 2 nM
IC50 (JAK1): 7.2 nM

SMILES: Cc1cc(Nc2nc(N[C@@H]3C[C@H]4CC[C@@H](C3)N4CCF)nc3ccccc23)n[nH]1 [Embodiment 234]
IC50 (TYK2): 7.11 nM
IC50 (JAK1): 112 nM

SMILES: CN(c1nc(Nc2cc(CO)[nH]n2)c2ccc(Cl)cc2n1)[C@@H]1C[C@H]2CC[C@@H](C1)N2CCC#N [Embodiment 236, 3-((3-exo)-3-((7-chloro-4-((5-(hydroxymethyl)-1H-pyrazol-3-yl)amino)quinazolin-2-yl)(methyl)amino)-8-azabicyclo[3.2.1]oct-8-yl)propionitrile]
IC50 (TYK2): 4.77 nM
IC50 (JAK1): 8.81 nM

SMILES: Cc1cc(Nc2nc(N[C@@H]3C[C@H]4CC[C@@H](C3)N4S(=O)(=O)c3ccccn3)nc3sccc23)n[nH]1 [Embodiment 266, N4-(5-methyl-1H-pyrazol-3-yl)-N2-((3-exo)-8-(pyridin-2-ylsulfonyl)-8-azabicyclo[3.2.1]oct-3-yl)thieno[2,3-d]pyrimidin-2,4-diamine]
IC50 (TYK2): 10.2 nM
IC50 (JAK1): 10.5 nM

SMILES: Cc1cc(Nc2nc(N[C@@H]3C[C@@H]4CN(CCC#N)C[C@@H]4C3)nc3ccccc23)n[nH]1 [Embodiment 300, 3-(cis-5-((4-((5-methyl-1H-pyrazol-3-yl)amino)quinazolin-2-yl)amino)hexahydrocyclopentadieno[c]pyrrole-2(1H)-yl)propionitrile]
IC50 (TYK2): 14.7 nM
IC50 (JAK1): 5.11 nM

SMILES: Cc1cc(Nc2nc(NC3CCN(S(=O)(=O)N4CC(C#N)C4)CC3)nc3sccc23)n[nH]1 [Embodiment 302, 1-((4-((4-((5-methyl-1H-pyrazol-3-yl)amino)thieno[2,3-d]pyrimidin-2-yl)amino)piperidin-1-yl)sulfonyl)azetindin-3-formonitrile]
IC50 (TYK2): 0.34 nM
IC50 (JAK1): 1.89 nM

SMILES: Cc1cc(Nc2nc(NC3CCN(S(=O)(=O)N4CC(C#N)C4)CC3)nc3ccccc23)n[nH]1 [Embodiment 311, 1-((4-((4-((5-methyl-1H-pyrazol-3-yl)amino)quinazolin-2-yl)amino)piperidin-1-yl)sulfonyl)azetindin-3-formonitrile]
IC50 (TYK2): 1.44 nM
IC50 (JAK1): 7.5 nM

Other lines, results leading:

IC50 (TYK2): 0.48 nM
IC50 (JAK1): 0.14 nM
SMILES: Cc1cc(Nc2nc(N[C@@H]3C[C@H]4CC[C@@H](C3)N4CCC#N)nc3cc(-c4ccccc4)ccc23)n[nH]1 [Embodiment 184, 3-((3-exo)-3-((4-((5-methyl-1H-pyrazol-3-yl)amino)-7-phenylquinazolin-2-yl)amino)-8-azabicyclo[3.2.1]oct-8-yl)propionitrile]

IC50 (TYK2): 0.19 nM
IC50 (JAK1): 0.23 nM
SMILES: Cc1cc(Nc2nc(N[C@@H]3C[C@H]4CC[C@@H](C3)N4CCC#N)nc3cc(-n4ccnc4)ccc23)n[nH]1 [Embodiment 203, 3-((3-exo)-3-((7-(1H-imidazol-1-yl)-4-((5-methyl-1H-pyrazol-3-yl)amino)quinazolin-2-yl)amino)-8-azabicyclo[3.2.1]oct-8-yl)propionitrile]

IC50 (TYK2): > 100 nM
IC50 (JAK1): 1.76 nM
SMILES: Cc1cc(Nc2nc(N[C@@H]3C[C@H]4CC[C@@H](C3)N4C(=O)CN(C)C)nc3cc(Cl)ccc23)n[nH]1 [Embodiment 224]

IC50 (TYK2): 9.99 nM
IC50 (JAK1): 2.63 nM
SMILES: Cc1cc(Nc2nc(N[C@@H]3C[C@H]4CC[C@@H](C3)N4C(=O)c3ccncc3)nc3ccccc23)n[nH]1 [Embodiment 228, ((3-exo)-3-((4-((5-methyl-1H-pyrazol-3-yl)amino)quinazolin-2-yl)amino)-8-azabicyclo[3.2.1]oct-8-yl)(pyridin-4-yl)methanone]

IC50 (TYK2): 2.09 nM
IC50 (JAK1): 3.55 nM
SMILES: COCCS(=O)(=O)N1[C@@H]2CC[C@H]1C[C@H](Nc1nc(Nc3cc(C)[nH]n3)c3ccccc3n1)C2 [Embodiment 233, N2-((3-exo)-8-((2-methoxylethyl)sulfonyl)-8-azabicyclo[3.2.1]oct-3-yl)-N4-(5-methyl-1H-pyrazol-3-yl)quinazolin-2,4-diamine]

IC50 (TYK2): 0.28 nM
IC50 (JAK1): 1.88 nM
SMILES: Cc1cc(Nc2nc(N[C@@H]3C[C@H]4CC[C@@H](C3)N4C(=O)[C@@H]3CCCN3)nc3sccc23)n[nH]1 [Embodiment 249, ((3-exo)-3-((4-((5-methyl-1H-pyrazol-3-yl)amino)thieno[2,3-d]pyrimidin-2-yl)amino)-9-azabicyclo[3.3.1]non-9-yl) ((S)-pyrrolidin-2-yl)methanone]

IC50 (TYK2): 3.08 nM
IC50 (JAK1): 3.22 nM
SMILES: Cc1cc(Nc2nc(N[C@@H]3C[C@H]4CCC[C@@H](C3)N4S(=O)(=O)c3nccn3C)nc3sccc23)n[nH]1 [Embodiment 269]

IC50 (TYK2): 14 nM
IC50 (JAK1): 0.06 nM
SMILES: Cc1cc(Nc2nc(N[C@@H]3C[C@H]4CC[C@@H](C3)N4S(=O)(=O)N3CC(C#N)C3)nc3cc(C)sc23)n[nH]1 [Embodiment 286, 1-(((3-exo)-3-((6-methyl-4-((5-methyl-1H-pyrazol-3-yl)amino)thieno[3,2-d]pyrimidin-2-yl)amino)-8-azabicyclo[3.2.1]oct-8-yl)sulfonyl)azetindin-3-formonitrile]

IC50 (TYK2): > 100 nM
IC50 (JAK1): 13.1 nM
SMILES: Cc1cc(Nc2cc3ncccc3c(N[C@@H]3C[C@H]4CC[C@@H](C3)N4S(=O)(=O)c3cn[nH]c3)n2)n[nH]1 [Embodiment 315, N5-((3-exo)-8-((1H-pyrazol-4-yl)sulfonyl)-8-azabicyclo[3.2.1]oct-3-yl)-N7-(5-methyl-1H-pyrazol-3-yl)-1,6-diazanaphthalen-5,7-diamine]
